Results reported in BindingDB's records for doi:10.1021/jm00002a012 (Merck Research Laboratories, 1995).
pIC50: −log10 of the molar value.

Target: Human immunodeficiency virus type 1 protease (Human immunodeficiency virus 1, UniProt Q72874)
Assay: Inhibition of HIV-1 protease was determined in vitro

CC(C)(C)NC(=O)[C@@H]1C[C@@H]2CCCC[C@@H]2CN1C[C@@H](O)[C@H](Cc1ccccc1)NC(=O)[C@@H](NC(=O)c1ccc2ccccc2n1)[C@H]1CCOC1 [(3S,4aS,8aS)-N-tert-butyl-2-[(2R,3S)-2-hydroxy-3-[(2S)-2-[(3R)-oxolan-3-yl]-2-(quinolin-2-ylformamido)acetamido]-4-phenylbutyl]-decahydroisoquinoline-3-carboxamide]
pIC50: 10.30
